For 24 compounds, IC50 results are on record in patent publication US20100317647A1 (priority 2009, published 2010).

human Cat S, sequence (P25774 115-331): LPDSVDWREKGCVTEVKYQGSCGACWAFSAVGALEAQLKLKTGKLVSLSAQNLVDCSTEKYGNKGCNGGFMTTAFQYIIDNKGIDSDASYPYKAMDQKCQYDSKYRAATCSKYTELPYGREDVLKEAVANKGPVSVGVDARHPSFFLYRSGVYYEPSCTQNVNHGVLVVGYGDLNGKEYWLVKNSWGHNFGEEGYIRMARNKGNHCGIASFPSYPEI

In this assay the target is human Cat S (Homo sapiens, UniProt P25774). Put plainly: Cathepsin enzyme inhibition assay (fluorogenic peptide substrate cleavage). The settings on record: human Cat S 1 nM; substrate Z-Val-Val-Arg-AMC 20 μM; pH 6.5; fluorescence over 20 minutes. The assay is classed as biochemical. The procedure:
Cathepsin Enzyme Inhibition Assay
Enzyme activity is measured by observing the increase in fluorescence intensity caused by cleavage of a peptide substrate containing a fluorophore whose emission is quenched in the intact peptide.
Assay buffer: 100 mM potassium phosphate pH 6.5, EDTA-Na 5 mM, Triton X-100 0.001%, DTT 5 mM. Enzymes (all at 1 nM): human and mouse Cathepsin S, Cat K, Cat B, Cat L. Substrate (20 μM): Z-Val-Val-Arg-AMC, except for Cat K which uses Z-Leu-Arg-AMC (both from Bachem).
AMC=7-Amino-4-Methyl-Coumarin.
DTT=dithiothreitol. Final volume: 100 μL.
Excitation 360 nm, Emission 465 nm.
Enzyme is added to the substance dilutions in 96-well microtitre plates and the reaction is started with substrate. Fluorescence emission is measured over 20 minutes, during which time a linear increase is observed in the absence of inhibitor. IC50 are calculated by standard methods. Inhibition of human Cat S, mouse Cat S, human Cat K, mouse Cat K, human Cat B, mouse Cat B, human Cat L and mouse Cat L have been measured separately. The results obtained for human Cat S are expressed in the following table.
For the compound `Cc1cc(-c2ccc(S(=O)(=O)[C@H]3C[C@@H](OC4CCCC4)[C@H](C(=O)NC4(C#N)CC4)C3)c(C(F)(F)F)c2)ccn1` (racemic) [Example 212, (1R,2R,4R) and (1S,2S,4S)-2-Cyclopentyloxy-4-[4-(2-methyl-pyridin-4-yl)-2-trifluoromethyl-benzenesulfonyl]-cyclopentanecarboxylic acid (1-cyano-cyclopropyl)-amide], the half-maximal inhibitory concentration (IC50) (usually the midpoint of a concentration-inhibition curve) stood at 0.215 nM.
Turning to `CO[C@@H]1C[C@H](S(=O)(=O)c2ccc(-c3ccc(F)cc3)cc2C(F)(F)F)C[C@H]1C(=O)NC1(C#N)CC1` (racemic) [Example 63, (1R,2R,4R) and (1S,2S,4S)-4-(4′-Fluoro-3-trifluoromethyl-biphenyl-4-sulfonyl)-2-methoxy-cyclopentanecarboxylic acid (1-cyano-cyclopropyl)-amide], the half-inhibitory concentration (IC50) came out at 1.3 nM.
Take `Cc1ccc(S(=O)(=O)[C@@H]2C[C@@H](C(=O)NCC#N)[C@H](C(=O)N3CCOCC3)C2)cc1` [Example 4, (1R,2R,4R)-2-(Morpholine-4-carbonyl)-4-(toluene-4-sulfonyl)-cyclopentanecarboxylic acid cyanomethyl-amide]: half-maximal inhibition (IC50) was put at 0.6 nM.
`N#CC1(NC(=O)[C@@H]2C[C@@H](S(=O)(=O)c3ccccc3Cl)C[C@H]2OCc2ccc(Cl)c(Cl)c2)CC1` (racemic) [Example 250, (1R,2R,4R) and (1S,2S,4S)-4-(2-Chloro-benzenesulfonyl)-2-(3,4-dichloro-benzyloxy)-cyclopentanecarboxylic acid (1-cyano-cyclopropyl)-amide] had an IC50 of 62.5 nM.
Under `CO[C@@H]1C[C@H](S(=O)(=O)c2ccc(N3CCN(CC(F)(F)F)CC3)cc2C(F)(F)F)C[C@H]1C(=O)NC1(C#N)CC1` (racemic) [Example 193, (1R,2R,4R) and (1S,2S,4S)-2-Methoxy-4-{4-[4-(2,2,2-trifluoro-ethyl)-piperazin-1-yl]-2-trifluoromethyl-benzenesulfonyl}-cyclopentanecarboxylic acid (1-cyano-cyclopropyl)-amide] stands 1.67 nM; under `N#CC1(NC(=O)[C@H]2CC[C@H](S(=O)(=O)c3ccc(N4CCN(C5CC5)CC4)cc3Cl)C2)CC1` (racemic) [Example 102, (1S,3S) and (1R,3R)-3-[2-Chloro-4-(4-cyclopropyl-piperazin-1-yl)-benzenesulfonyl]-cyclopentanecarboxylic acid (1-cyano-cyclopropyl)-amide], 270 nM; under `N#CC1(NC(=O)[C@@H]2C[C@@H](S(=O)(=O)c3ccc(F)cc3Cl)C[C@H]2COc2ccc(Cl)nc2)CC1` [Example 162, (1R,2R,4S)-4-(2-Chloro-4-fluoro-benzenesulfonyl)-2-(6-chloro-pyridin-3-yloxymethyl)-cyclopentanecarboxylic acid (1-cyano-cyclopropyl)-amide], 14.7 nM.
Under `CO[C@@H]1C[C@H](S(=O)(=O)c2ccc(-c3cncc(Cl)c3)cc2C(F)(F)F)C[C@H]1C(=O)NC1(C#N)CC1` (racemic) [Example 90, (1R,2R,4R) and (1S,2S,4S)-4-[4-(5-Chloro-pyridin-3-yl)-2-trifluoromethyl-benzenesulfonyl]-2-methoxy-cyclopentanecarboxylic acid (1-cyano-cyclopropyl)-amide] stands 0.4 nM; under `N#CC1(NC(=O)[C@@H]2C[C@@H](S(=O)(=O)c3ccc(OCC(F)(F)F)cc3Cl)C[C@H]2C(=O)N2CC(F)(F)C2)CC1` [Example 134, (1R,2R,4R)-4-[2-Chloro-4-(2,2,2-trifluoro-ethoxy)-benzenesulfonyl]-2-(3,3-difluoro-azetidine-1-carbonyl)-cyclopentanecarboxylic acid (1-cyano-cyclopropyl)-amide], 1.4 nM; under `CO[C@@H]1C[C@H](S(=O)(=O)c2ccc(N3CC(F)(F)C3)cc2C(F)(F)F)C[C@H]1C(=O)NC1(C#N)CC1` (racemic) [Example 206, (1R,2R,4R) and (1S,2S,4S)-4-[4-(3,3-Difluoro-azetidin-1-yl)-2-trifluoromethyl-benzenesulfonyl]-2-methoxy-cyclopentanecarboxylic acid (1-cyano-cyclopropyl)-amide], 1.4 nM.
In the case of `CO[C@@H]1C[C@H](S(=O)(=O)c2ccc(N3CCN(C(C)=O)CC3)cc2C(F)(F)F)C[C@H]1C(=O)NC1(C#N)CC1` (racemic) [Example 217, (1R,2R,4R) and (1S,2S,4S)-4-[4-(4-Acetyl-piperazin-1-yl)-2-trifluoromethyl-benzenesulfonyl]-2-methoxy-cyclopentanecarboxylic acid (1-cyano-cyclopropyl)-amide], the IC50 is 1.03 nM.
Compound `N#CC1(NC(=O)[C@@H]2C[C@@H](S(=O)(=O)c3ccccc3Cl)C[C@H]2OCc2ccc(Cl)cc2F)CC1` (racemic) [Example 252, (1R,2R,4R) and (1S,2S,4S)-4-(2-Chloro-benzenesulfonyl)-2-(4-chloro-2-fluoro-benzyloxy)-cyclopentanecarboxylic acid (1-cyano-cyclopropyl)-amide] came in with an IC50 of 4.99 nM.
Take `N#CC1(NC(=O)[C@@H]2C[C@@H](S(=O)(=O)c3ccccc3)C[C@H]2C(=O)N2CCS(=O)(=O)CC2)CC1` [Example 20, (1R,2R,4R)-4-Benzenesulfonyl-2-(1,1-dioxo-1-thiomorpholine-4-carbonyl)-cyclopentanecarboxylic acid (1-cyano-cyclopropyl)-amide]: the IC50 was determined as 4.3 nM.
Compound `CC(=O)N1CCN(c2ccc(S(=O)(=O)[C@@H]3C[C@@H](C(=O)NC4(C#N)CC4)[C@H](C(=O)N4CCC(F)(F)C4)C3)c(Cl)c2)CC1` [Example 208, (1R,2R,4R)-4-[4-(4-Acetyl-piperazin-1-yl)-2-chloro-benzenesulfonyl]-2-(3,3-difluoro-pyrrolidine-1-carbonyl)-cyclopentanecarboxylic acid (1-cyano-cyclopropyl)-amide] showed an IC50 of 1.45 nM.
In turn, `CC1CCN(C(=O)[C@@H]2C[C@H](S(=O)(=O)c3ccccc3)C[C@H]2C(=O)NC2(C#N)CC2)CC1` [Example 19, (1R,2R,4R)-4-Benzenesulfonyl-2-(4-methyl-piperidine-1-carbonyl)-cyclopentanecarboxylic acid (1-cyano-cyclopropyl)-amide] returned a half-maximal inhibitory concentration (IC50) of 0.5 nM.
Under `CO[C@@H]1C[C@H](S(=O)(=O)c2ccc(-c3ccnc(C)c3)cc2C(F)(F)F)C[C@H]1C(=O)NC1(C#N)CC1` [Example 139, (1R,2R,4R)-2-Methoxy-4-[4-(2-methyl-pyridin-4-yl)-2-trifluoromethyl-benzenesulfonyl]-cyclopentanecarboxylic acid (1-cyano-cyclopropyl)-amide] stands 0.3 nM; under `CO[C@@H]1C[C@H](S(=O)(=O)c2ccc(-c3cncc(C)c3)cc2C(F)(F)F)C[C@H]1C(=O)NC1(C#N)CC1` (racemic) [Example 85, (1R,2R,4R) and (1S,2S,4S)-2-Methoxy-4-[4-(5-methyl-pyridin-3-yl)-2-trifluoromethyl-benzenesulfonyl]-cyclopentanecarboxylic acid (1-cyano-cyclopropyl)-amide], 0.5 nM.
In turn, `N#CCNC(=O)[C@@H]1C[C@@H](S(=O)(=O)c2ccc(F)cc2Cl)C[C@H]1COc1ccc(F)cc1` (single isomer, unassigned) [Example 143] registered an IC50 of 0.523 nM.
As to `N#CC1(NC(=O)[C@@H]2C[C@@H](S(=O)(=O)c3ccc(-n4cccn4)cc3Cl)C[C@H]2C(=O)N2CC(F)(F)C2)CC1` [Example 167, (1R,2R,4R)-4-(2-Chloro-4-pyrazol-1-yl-benzenesulfonyl)-2-(3,3-difluoro-azetidine-1-carbonyl)-cyclopentanecarboxylic acid (1-cyano-cyclopropyl)-amide], inhibition was half-maximal at 1.47 nM (IC50).
The figure for `CO[C@@H]1C[C@H](S(=O)(=O)c2ccc(Oc3ccc(F)cc3)cc2Cl)C[C@H]1C(=O)NC1(C#N)CC1` (racemic) [Example 57, (1R,2R,4R) and (1S,2S,4S)-4-[2-Chloro-4-(4-fluoro-phenoxy)-benzenesulfonyl]-2-methoxy-cyclopentanecarboxylic acid (1-cyano-cyclopropyl)-amide] is 21.8 nM; for `COC[C@@H]1C[C@H](S(=O)(=O)c2ccccc2Cl)C[C@H]1C(=O)NC1(C#N)CC1` (single isomer, unassigned) [Example 105] it is 22.3 nM; for `N#CC1(NC(=O)[C@@H]2C[C@@H](S(=O)(=O)c3ccccc3)C[C@H]2C(=O)N2CCC(O)CC2)CC1` [Example 13, (1R,2R,4R)-4-Benzenesulfonyl-2-(4-hydroxy-piperidine-1-carbonyl)-cyclopentanecarboxylic acid (1-cyano-cyclopropyl)-amide] it is 1 nM.
`CCCO[C@@H]1C[C@H](S(=O)(=O)c2ccccc2C(F)(F)F)C[C@H]1C(=O)NC1(C#N)CC1` (racemic) [Example 54, (1R,2R,4R) and (1S,2S,4S)-2-Propoxy-4-(2-trifluoromethyl-benzenesulfonyl)-cyclopentanecarboxylic acid (1-cyano-cyclopropyl)-amide] yielded an IC50 of 2.1 nM.
Compound `CO[C@@H]1C[C@H](S(=O)(=O)c2ccccc2C(F)(F)F)C[C@H]1C(=O)NC1(C#N)CC1` (racemic) [Example 46, (1R,2R,4R) and (1S,2S,4S)-2-Methoxy-4-(2-trifluoromethyl-benzenesulfonyl)-cyclopentanecarboxylic acid (1-cyano-cyclopropyl)-amide] showed an IC50 of 5.8 nM.
